According to US20150246888A1, “ENOYL REDUCTASE INHIBITORS WITH ANTIBACTERIAL ACTIVITY” (priority 2012, published 2015):
Converted amounts (≈) assume the structure as drawn. Like-named read-outs stand apart in the source and are kept apart here.

What was measured:
[1] = tested on: S. aureus (ATCC number 29213); assay: microbe, parasite or virus in culture; assay type: cell-based
MRSA (ATCC number 43300) = assay: microbe, parasite or virus in culture; assay type: cell-based, methicillin-resistant Staphylococcus aureus; conditions: Staphylococcus aureus
[2] = tested on: E. coli (BW251113 strain); assay: microbe, parasite or virus in culture; assay type: cell-based; conditions: Escherichia coli
FtuFabI = FtuFabI (Francisella tularensis subsp. tularensis, UniProt Q5NGQ3); assay: biochemical; set-up: species or system F. tularensis subsp. tularensis Schu4
Chain of FtuFabI (Q5NGQ3 1-260 limits assumed): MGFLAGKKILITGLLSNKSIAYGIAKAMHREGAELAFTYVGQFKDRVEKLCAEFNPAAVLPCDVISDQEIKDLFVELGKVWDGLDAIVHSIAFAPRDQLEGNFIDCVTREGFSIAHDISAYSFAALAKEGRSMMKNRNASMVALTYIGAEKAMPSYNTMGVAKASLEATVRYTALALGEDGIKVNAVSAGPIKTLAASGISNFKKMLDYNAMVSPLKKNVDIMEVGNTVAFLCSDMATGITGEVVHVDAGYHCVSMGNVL

[3] = tested on: B. anthracis, ΔANR strain; assay: microbe, parasite or virus in culture; assay type: cell-based; conditions: Bacillus anthracis
[4] = tested on: F. tularensis, strain Utah 112; assay: microbe, parasite or virus in culture; assay type: cell-based; conditions: Francisella tularensis, UTAH112
[5] = tested on: E. coli TolC-, an efflux defective mutant; assay: microbe, parasite or virus in culture; assay type: cell-based; conditions: Escherichia coli
S. aureus = assay: Cell viability as a function of time (measured with depolarization); assay type: cell-based
S. aureus membrane = assay: Membrane depolarization as a function of time; assay type: cell-based
FabI = FabI (Francisella tularensis subsp. tularensis, UniProt Q5NGQ3); assay: biochemical; set-up: species or system F. tularensis subsp. tularensis Schu4; conditions: read-out: Ki^1 (Experimental Ki)
Chain of FabI (Q5NGQ3 1-260 limits assumed): as above

[6] = read-out: IC50, Inhibition of FabI

Row | SMILES | MIC ([1]; Staphylococcus aureus) [mg/L] | MIC (MRSA (ATCC number 43300)) [mg/L] | MIC [2] [mg/L] | IC50 (FtuFabI) [µM] | MIC [3] [mg/L] | MIC [4] [mg/L] | MIC [5] [mg/L] | IC50 (FtuFabI; [6]) [µM] | further results
1 | COc1ccc(Cn2cnc3cc(C)c(C)cc32)cc1C [Compound 7, 1-(4-methoxy-3-methylbenzyl)-5,6-dimethyl-1H-benzo[d]imidazole] | > 12.5 | > 12.5 | > 12.5 | 0.25 | > 12.5 | > 12.5 | 12.5 (≈ 44.6 µM) |  | 
2 | CC1(C)Cc2cc3ncn(Cc4ccc5c(c4)CC[C@@H]5O)c3cc2C1 [Compound 15, (S)-5-((6,6-dimethyl-6,7-dihydroindeno[5,6-d]imidazol-1(5H)-yl)methyl)-2,3-dihydro-1H-inden-1-ol] | > 12.5 | > 12.5 | > 12.5 | 0.041 | > 12.5 | > 12.5 | > 12.5 |  | 
3 | Oc1cc(Cl)ccc1Oc1ccc(Cl)cc1Cl [Triclosan, reference compound] | 0.4 (≈ 1.38 µM) |  |  |  |  |  |  |  | Cell viability (done at 2X MIC) (S. aureus): Possibly bacteriostatic initially but then bactericidal after overnight incubation; Depolarization (done at 2X MIC) (S. aureus membrane): Strongly depolarizing
4 | COc1ccc(Cn2cnc3cc(C)c(C)cc32)cc1OC [Compound 22, 1-(3,4-dimethoxybenzyl)-5,6-dimethyl-1H-benzo[d]imidazole] |  |  |  | 7.6 |  |  |  |  | 
5 | COc1ccc(Cn2cnc3cc(C)c(C)cc32)cc1 [Compound 16, 1-(4-methoxybenzyl)-5,6-dimethyl-1H-benzo[d]imidazole] |  |  |  | 4.7 |  |  |  |  | 
6 | COc1ccc(Cn2cnc3cc4c(cc32)CC(C)(C)C4)cc1C [Compound 11, 1-(4-methoxy-3-methylbenzyl)-6,6-dimethyl-1,5,6,7-tetrahydroindeno[5,6-d]imidazole] | > 12.5 | > 12.5 | > 12.5 | 0.014 | > 12.5 | > 12.5 | > 12.5 |  | 
7 | Nc1ccc(Cn2cnc3cc4c(cc32)CCC4)cc1 [Compound 21, 4-((6,7-dihydroindeno[5,6-d]imidazol-1(5H)-yl)methyl)aniline] | > 12.5 | > 12.5 | > 12.5 | 12 | > 12.5 | > 12.5 | > 12.5 |  | 
8 | c1cc2c(cc1Cn1cnc3cc4c(cc31)CCCC4)OCO2 [Compound 14, 1-(benzo[d][1,3]dioxol-5-ylmethyl)-5,6,7,8-tetrahydro-1H-naphtho[2,3-d]imidazole] | 4.7 (≈ 15.3 µM) | 6.3 (≈ 20.6 µM) | > 12.5 |  | > 12.5 | 4.7 (≈ 15.3 µM) | 9.4 (≈ 30.7 µM) | 0.32 | MIC [1]: 4.7 mg/L (≈ 15.3 µM); MBC ([1]; Staphylococcus aureus): > 25 mg/L; Cell viability (done at 2X MIC) (S. aureus): Clearly bacteriostatic; MBC (MRSA (ATCC number 43300)): > 25 mg/L; IC50 (FtuFabI; read-out: IC50): 0.32 µM; Ki (FtuFabI; read-out: Ki^2 (Calculated using the Cheng-Prusoff Equation)): 0.26 µM; MBC [4]: 18.8 mg/L (≈ 61.4 µM); Ki (FabI): 0.33 ± 0.04 µM; MBC [5]: 25 mg/L (≈ 81.6 µM); Depolarization (done at 2X MIC) (S. aureus membrane): Clearly no depolarization seen
9 | CC(c1ccc(Cl)c(Cl)c1)n1cnc2cc3c(cc21)CC(C)(C)C3 (stereo not drawn) [Compound 5, 1-(1-(3,4-dichlorophenyl)ethyl)-6,6-dimethyl-1,5,6,7-tetrahydroindeno[5,6-d]imidazole] | 4.7 (≈ 13.1 µM) | 4.7 (≈ 13.1 µM) | > 12.5 |  | > 12.5 | > 12.5 | > 12.5 | 0.24 | MBC ([1]; Staphylococcus aureus): > 12.5 mg/L; MBC (MRSA (ATCC number 43300)): > 12.5 mg/L
10 | Cc1cc2ncn(C(C)c3ccc(Cl)c(Cl)c3)c2cc1C (stereo not drawn) [Compound 2, 1-(1-(3,4-dichlorophenyl)ethyl)-5,6-dimethyl-1H-benzo[d]imidazole] | 12.5 (≈ 39.2 µM) | 12.5 (≈ 39.2 µM) | > 12.5 |  | 12.5 (≈ 39.2 µM) | > 12.5 | 6.3 (≈ 19.7 µM) | 0.37 | MBC [5]: 12.5 mg/L (≈ 39.2 µM)
11 | Cc1cc2ncn(Cc3ccc4c(c3)OCO4)c2cc1C [Compound 17, 1-(benzo[d][1,3]dioxol-5-ylmethyl)-5,6-dimethyl-1H-benzo[d]imidazole] |  |  |  | 4.4 |  |  |  |  | 
12 | Cc1cc2ncn(Cc3ccc(Cl)c(Cl)c3)c2cc1C [Compound 1, 1-(3,4-dichlorobenzyl)-5,6-dimethyl-1H-benzo[d]imidazole] | 25 (≈ 81.9 µM) |  |  |  |  |  |  | 0.3 | Cell viability (done at 2X MIC) (S. aureus): Bactericidal intially but cells recover and compound is not lethal overnight; Depolarization (done at 2X MIC) (S. aureus membrane): Depolarization seen initially in the first 60 min
